# Results from patent US6924305B2, “Diazocine derivatives and their use as tryptase inhibitors” (Altana Pharma AG, priority 2001, dated 2005).
# Molecular target: human tryptase
# Assay: Inhibition of human tryptase (apparent dissociation constant, chromogenic substrate tos-Gly-Pro-arg-pNA)
# Type: biochemical
# Details: pKiapp = -log Kiapp (mol/l), in presence of substrate, heparin 0.1-50 μg/ml, equilibrium conditions
# From the text: The documented pathophysiological effects of mast cell tryptase are caused directly by the enzymatic activity of the protease. Accordingly, they are reduced or blocked by inhibitors which inhibit the enzymatic activity of the tryptase. A suitable measure for the affinity of a reversible inhibitor to the target protease is the equilibrium dissociation constant K1 of the enzyme-inhibitor complex. This K1 value can be determined via the effect of the inhibitor on the tryptase-induced cleavage of a chromogenic peptide-p-nitroanilide substrate or a fluorogenic peptide-aminomethylcoumarin substrate.
# The dissociation constants for the tryptase-inhibitor complexes are determined under equilibrium conditions in accordance with the general proposals of Bieth (Bieth J G, Pathophysiological Interpretation of kinetic constants of protease inhibitors, Bull. Europ. Physiopath. Resp. 16:183-195, 1980) and the methods of Sommerhoff et al. (Sommerhoff C P et al., A Kazal-type inhibitor of human mast cell tryptase: Isolation from the medical leech Hirudo medicinalis, characterization, and sequence analysis, Biol. Chem. Hoppe-Seyler 375: 685-694, 1994).
# Human tryptase is isolated from lung tissue or prepared recombinantly; the specific activity of the protease, determined by titration, is usually greater than 85% of the theoretical value. In the presence of heparin (0.1-50 μg/ml) for stabilizing the protease, constant amounts of the tryptase are incubated with increasing amounts of the inhibitors. After an equilibrium between the reaction partners has formed, the remaining enzyme activity after addition of the peptide-p-nitroanilide substrate tos-Gly-Pro-arg-pNA is determined and the cleavage of the latter is monitored at 405 nm for 3 min. Alternatively, the remaining enzymatic activity can also be determined using fluorogenic substrates. The apparent dissociation constants Klapp (i.e. in the presence of substrate) are subsequently determined by adapting the enzyme rates to the general equation for reversible inhibitors (Morrison J F, Kinetics of the reversible inhibition of enzyme-catalyzed reactions by tight-binding inhibitors, Biochim. Biophys. Acta 185, 269-286, 1969) using non-linear regression: V1/V0=1−{Et+It+Klapp−(Et+ItKlapp)^2−4EtIt]^1/2}/2Et V1 and V0 are the rates in the presence and absence, respectively, of the inhibitor, and Et and It are the tryptase and inhibitor concentrations, respectively.
# The apparent dissociation constants determined for the compounds according to the invention are shown in Table A below, where the numbers of the compounds correspond to the numbers of the compounds in the examples [pKlapp=−logKlapp (mol/l)].
row,pKiapp,Structure (SMILES)
1,9.66,"Cl.Cl.NCc1ccc(CCC(=O)N2CC(NC(=O)CN3CCC(=O)N(CC(=O)NC4CC(C(=O)NC5CC5)N(C(=O)CCc5ccc(CN)cc5)C4)CCC3=O)CC2C(=O)NC2CC2)cc1 (centres unmarked) [Compound 4, 1,5-Bis{N,N′-[1-(3-(4-aminomethylphenyl)propionyl)-2-cyclopropylaminocarbonyl-pyrrolidin-4-yl]aminocarbonylmethyl}perhydro-1,5-diazocine-2,6-dione dihydrochloride]"
2,7.43,"Cl.Cl.NCc1ccc(CCC(=O)N2CC(NC(=O)CN3CCC(=O)N(CC(=O)NC4CC(C(=O)O)N(C(=O)CCc5ccc(CN)cc5)C4)CCC3=O)CC2C(=O)O)cc1 (centres unmarked) [Compound 3, 1,5-Bis{N,N′-[1-(3-(4-aminomethylphenyl)proplonyl)-2-carboxypyrrlidin-4-yl]-aminocarbonylmethyl}perhydro-1,5-diazocine-2,6-dine dihydrochloride]"
3,8.80,"Cl.Cl.NCc1ccc(CCC(=O)N2CC(NC(=O)CN3CCC(=O)N(CC(=O)NC4CC(C(N)=O)N(C(=O)CCc5ccc(CN)cc5)C4)CCC3=O)CC2C(N)=O)cc1 (centres unmarked) [Compound 5, 1,5-Bis{N,N′-[1-(3-(4-aminomethylphenyl)proplonyl)-2-aminocarbonylpyrrolidin-4-yl]-aminocarbonylmethyl}perhydro-1,5-diazocine-2,6-dione dihydrochloride]"

# More lines, now with the values behind:
row,Structure (SMILES),pKiapp
1,"COC(=O)C1CC(NC(=O)CN2CCC(=O)N(CC(=O)NC3CC(C(=O)OC)N(C(=O)CCc4ccc(CN)cc4)C3)CCC2=O)CN1C(=O)CCc1ccc(CN)cc1.Cl.Cl (centres unmarked) [Compound 1, 1,5-Bis{N,N′-[1-(3-(4-aminomethylphenyl)propionyl)-2-methoxycarbonylpyrrolidin-4-yl]aminocarbonylmethyl}perhydro-1,5-diazocine-2,6-dione dihydrochloride]",9.05
2,"Cl.Cl.NCc1ccc(CCC(=O)N2CC(NC(=O)CN3CCC(=O)N(CC(=O)NC4CC(C(=O)OCc5ccccc5)N(C(=O)CCc5ccc(CN)cc5)C4)CCC3=O)CC2C(=O)OCc2ccccc2)cc1 (centres unmarked) [Compound 2, 1,5-Bis{N,N′-[1-(3-(4-aminomethylphenyl)propionyl)-2-benzyloxycarbonylpyrrolidin-4-yl]aminocarbonylmethyl}perhydro-1,5-diazocine-2,6-dione dihydrochloride]",9.22
